# In patent publication US20250002507A1, “7,8-DIHYDRO-5H-1,6-NAPHTHYRIDINE DERIVATIVES AS POSITIVE ALLOSTERIC MODULATORS OF THE MUSCARINIC ACETYLCHOLINE RECEPTOR M4 FOR TREATING NEUROLOGICAL AND PSYCHIATRIC DISORDERS” (Vanderbilt University, priority 2021, published 2025):
# Like-named read-outs stand apart in the source and are kept apart here.
# Target: T1, Human M4 (Homo sapiens, UniProt P08173)
# T1 construct: expressed in transfected cells
# T1 sequence (P08173 1-479): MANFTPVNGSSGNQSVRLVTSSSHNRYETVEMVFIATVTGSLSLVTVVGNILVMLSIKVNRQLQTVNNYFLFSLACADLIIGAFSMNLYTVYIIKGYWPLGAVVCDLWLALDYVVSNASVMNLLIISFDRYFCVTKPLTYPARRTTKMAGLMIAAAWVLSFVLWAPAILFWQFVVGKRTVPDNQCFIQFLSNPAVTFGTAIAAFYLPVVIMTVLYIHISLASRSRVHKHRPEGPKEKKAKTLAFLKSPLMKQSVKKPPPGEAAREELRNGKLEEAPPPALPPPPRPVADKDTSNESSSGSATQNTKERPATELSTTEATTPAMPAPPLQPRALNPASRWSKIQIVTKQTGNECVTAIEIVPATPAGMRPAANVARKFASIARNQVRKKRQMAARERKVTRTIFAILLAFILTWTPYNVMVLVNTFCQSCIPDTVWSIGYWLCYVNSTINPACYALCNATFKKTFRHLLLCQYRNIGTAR
# Test: mAChR M4 cell-based functional assay (calcium flux, potentiation of EC20 acetylcholine response), hM4-Gqi5 CHO-K1 cells
# Conditions: for Emax at 30 µM: % ACh maximum at 30 μM; for EC50: calcium flux, read-out: Human M4 EC50
# In short: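 CHO-K1 cells stably expressing human M4 with chimeric Gqi5, loaded with Fluo-4 AM 50 min at 37 °C; calcium flux read by FDSS. 11-point 1:3 compound curves added, then EC20 acetylcholine at 144 s; potentiation of the EC20 response fitted by four-parameter logistic to give EC50 and Emax.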
# [1] = CHO-K1, human M4, read-out: Emax
# [2] = hM4-Gqi5 CHO-K1 cells, PAM of EC20 acetylcholine
# [3] = CHO-K1, Table 4, Human M4, read-out: Emax (% ACh maximum at 30 μM)
# [4] = Table 4, potentiation of EC20 acetylcholine response, CHO-K1 cells
# [5] = CHO-K1, Table 3, Human M4, read-out: Emax (% ACh maximum at 30 μM)
# [6] = Table 3, potentiation of EC20 acetylcholine response, CHO-K1 cells
Emax at 30 µM [1] [%],EC50 [2] [µM],Emax at 30 µM [5] [%],EC50 [6] [µM],SMILES,other results
87,0.443,–,–,"Cc1c(N2CCc3ncc(Nc4c(F)ccc(Cl)c4F)cc3C2)nn2cnnc2c1C [Compound 29, N-(3-chloro-2,6-difluoro-phenyl)-6-(7,8-dimethyl-[1,2,4]triazolo[4,3-b]pyridazin-6-yl)-7,8-dihydro-5H-1,6-naphthyridin-3-amine]",–
–,–,–,–,"FC(F)(F)c1cnc2c(c1)CN(c1nn3cnnc3c3c1CCCC3)CC2 [Compound 345, 6-(3-(trifluoromethyl)-7,8-dihydro-1,6-naphthyridin-6(5H)-yl)-7,8,9,10-tetrahydro-[1,2,4]triazolo[3,4-a]phthalazine]",Emax at 30 µM [3]: 63%; EC50 [4]: 1.46 µM
–,–,–,–,"Cc1cc2cncn2nc1N1CCc2ncc(-c3cn(C)nc3C)cc2C1 [Compound 342, 3-(1,3-dimethyl-1H-pyrazol-4-yl)-6-(3-methylimidazo[1,5-b]pyridazin-2-yl)-5,6,7,8-tetrahydro-1,6-naphthyridine]",Emax at 30 µM [3]: 81%; EC50 [4]: 0.492 µM
–,–,96,1.12,"Cc1cc2nnc(C(F)(F)F)n2nc1N1CCc2ncc(Oc3ccc(F)cc3F)cc2C1 [Compound 296, 3-(2,4-difluorophenoxy)-6-(7-methyl-3-(trifluoromethyl)-[1,2,4]triazolo[4,3-b]pyridazin-6-yl)-5,6,7,8-tetrahydro-1,6-naphthyridine]",–
–,–,35,0.082,"Cc1cc2nncn2nc1N1CCc2ncc(Nc3nsc4ncccc34)cc2C1 [Compound 203, N-(6-(7-methyl-[1,2,4]triazolo[4,3-b]pyridazin-6-yl)-5,6,7,8-tetrahydro-1,6-naphthyridin-3-yl)isothiazolo[5,4-b]pyridin-3-amine]",–
80,0.0921,–,–,"Cc1c(N2CCc3ncc(Nc4c(F)cccc4F)cc3C2)nn2cnnc2c1C [Compound 47, N-(2,6-difluorophenyl)-6-(7,8-dimethyl-[1,2,4]triazolo[4,3-b]pyridazin-6-yl)-7,8-dihydro-5H-1,6-naphthyridin-3-amine]",–
102,0.332,–,–,"Cc1c(N2CCc3ncc(-c4cnn(CC(F)(F)F)c4)cc3C2)nn2cnnc2c1C [Compound 98, 6-(7,8-dimethyl-[1,2,4]triazolo[4,3-b]pyridazin-6-yl)-3-[1-(2,2,2-trifluoroethyl)pyrazol-4-yl]-7,8-dihydro-5H-1,6-naphthyridine]",–
–,–,93,0.094,"Cc1cc2nncn2nc1N1CCc2ncc(-c3ccns3)cc2C1 [Compound 193, 5-(6-(7-methyl-[1,2,4]triazolo[4,3-b]pyridazin-6-yl)-5,6,7,8-tetrahydro-1,6-naphthyridin-3-yl)isothiazole]",–
90,0.296,–,–,"Cc1ccc(F)c(Nc2cnc3c(c2)CN(c2nn4cnnc4c(C)c2C)CC3)c1 [Compound 69, 6-(7,8-dimethyl-[1,2,4]triazolo[4,3-b]pyridazin-6-yl)-N-(2-fluoro-5-methyl-phenyl)-7,8-dihydro-5H-1,6-naphthyridin-3-amine]",–
–,–,–,–,"Cc1c(N2CCc3ncc(N4CCOC(c5cccnc5)C4)cc3C2)nn2c(C(F)(F)F)nnc2c1C (stereo not shown) [Compound 328, 4-(6-(7,8-dimethyl-3-(trifluoromethyl)-[1,2,4]triazolo[4,3-b]pyridazin-6-yl)-5,6,7,8-tetrahydro-1,6-naphthyridin-3-yl)-2-(pyridin-3-yl)morpholine]",Emax at 30 µM [3]: 76%; EC50 [4]: 0.623 µM
80,0.113,–,–,"Cc1cc2nccn2nc1N1CCc2ncc(-c3cncs3)cc2C1 [Compound 107, 5-[6-(7-methylimidazo[1,2-b]pyridazin-6-yl)-7,8-dihydro-5H-1,6-naphthyridin-3-yl]thiazole]",–
–,–,65,0.477,"Cc1cc2nncn2nc1N1CCc2ncc(Nc3csc4ncccc34)cc2C1 [Compound 205, N-(6-(7-methyl-[1,2,4]triazolo[4,3-b]pyridazin-6-yl)-5,6,7,8-tetrahydro-1,6-naphthyridin-3-yl)thieno[2,3-b]pyridin-3-amine]",–
–,–,55,1.45,"Cc1c(N2CCc3ncc(-c4ccc(C(F)(F)F)nc4)cc3C2)nn2c(C(F)(F)F)nnc2c1C [Compound 259, 6-(7,8-dimethyl-3-(trifluoromethyl)-[1,2,4]triazolo[4,3-b]pyridazin-6-yl)-3-(6-(trifluoromethyl)pyridin-3-yl)-5,6,7,8-tetrahydro-1,6-naphthyridine]",–
–,5.87,–,–,"Cc1c(N2CCc3ncc(NC(=O)C4COC4)cc3C2)nn2cnnc2c1C [Compound 15, N-[6-(7,8-Dimethyl-[1,2,4]triazolo[4,3-b]pyridazin-6-yl)-7,8-dihydro-5H-1,6-naphthyridin-3-yl]oxetane-3-carboxamide]",Emax (CHO-K1): 68%
–,–,80,0.937,"COc1ncc(-c2cnc3c(c2)CN(c2nn4cnnc4c(C)c2C)CC3)cc1Cl [Compound 173, 3-(5-chloro-6-methoxypyridin-3-yl)-6-(7,8-dimethyl-[1,2,4]triazolo[4,3-b]pyridazin-6-yl)-5,6,7,8-tetrahydro-1,6-naphthyridine]",–
79,0.199,–,–,"Cc1noc(C)c1-c1cnc2c(c1)CN(c1nn3c(C(F)(F)F)nnc3c(C)c1C)CC2 [Compound 92, 4-[6-[7,8-dimethyl-3-(trifluoromethyl)-[1,2,4]triazolo[4,3-b]pyridazin-6-yl]-7,8-dihydro-5H-1,6-naphthyridin-3-yl]-3,5-dimethyl-isoxazole]",–
–,–,92,0.966,"COc1ccc(C(=O)Nc2cnc3c(c2)CN(c2nn4cnnc4c(C)c2C)CC3)cn1 [Compound 155, N-(6-(7,8-dimethyl-[1,2,4]triazolo[4,3-b]pyridazin-6-yl)-5,6,7,8-tetrahydro-1,6-naphthyridin-3-yl)-6-methoxynicotinamide]",–
–,–,–,–,"Cc1c(N2CCc3ncc(N4C[C@@H](C)O[C@@H](C)C4)cc3C2)nn2c(C(F)(F)F)nnc2c1C [Compound 318, (2R,6S)-4-(6-(7,8-dimethyl-3-(trifluoromethyl)-[1,2,4]triazolo[4,3-b]pyridazin-6-yl)-5,6,7,8-tetrahydro-1,6-naphthyridin-3-yl)-2,6-dimethylmorpholine]",Emax at 30 µM [3]: 80%; EC50 [4]: 2.15 µM
94,0.149,–,–,"Cc1nn(C)c(C)c1-c1cnc2c(c1)CN(c1nn3cnnc3c(C)c1C)CC2 [Compound 23, 6-(7,8-dimethyl-[1,2,4]triazolo[4,3-b]pyridazin-6-yl)-3-(1,3,5-trimethylpyrazol-4-yl)-7,8-dihydro-5H-1,6-naphthyridine]",–
–,–,–,–,"COCc1c(C)c(N2CCc3ncc(C(F)(F)F)cc3C2)nn2cnnc12 [Compound 350, 6-(8-(Methoxymethyl)-7-methyl-[1,2,4]triazolo[4,3-b]pyridazin-6-yl)-3-(trifluoromethyl)-5,6,7,8-tetrahydro-1,6-naphthyridine]",Emax at 30 µM [3]: 77%; EC50 [4]: 5.11 µM
–,–,109,0.107,"Cc1c(N2CCc3ncc(Oc4ccccc4F)cc3C2)nn2cnnc2c1C [Compound 159, 6-(7,8-dimethyl-[1,2,4]triazolo[4,3-b]pyridazin-6-yl)-3-(2-fluorophenoxy)-5,6,7,8-tetrahydro-1,6-naphthyridine]",–
92,0.0639,–,–,"[2H]c1nnc2c(C)c(C)c(N3CCc4ncc(-c5cncs5)cc4C3)nn12 [Compound 78, 5-[6-(3-deuterio-7,8-dimethyl-[1,2,4]triazolo[4,3-b]pyridazin-6-yl)-7,8-dihydro-5H-1,6-naphthyridin-3-yl]thiazole]",–
–,–,85,1.72,"Cc1c(N2CCc3ncc(C(=O)NCc4cncs4)cc3C2)nn2c(C(F)(F)F)nnc2c1C [Compound 228, 6-(7,8-dimethyl-3-(trifluoromethyl)-[1,2,4]triazolo[4,3-b]pyridazin-6-yl)-N-(thiazol-5-ylmethyl)-5,6,7,8-tetrahydro-1,6-naphthyridine-3-carboxamide]",–
–,–,100,1.1,"Cc1cc2nnc(C(F)(F)F)n2nc1N1CCc2ncc(Oc3cccc(F)c3F)cc2C1 [Compound 297, 3-(2,3-difluorophenoxy)-6-(7-methyl-3-(trifluoromethyl)-[1,2,4]triazolo[4,3-b]pyridazin-6-yl)-5,6,7,8-tetrahydro-1,6-naphthyridine]",–
95,0.276,–,–,"Cc1c(N2CCc3ncc(-c4cnn(C5CCC5)c4)cc3C2)nn2cnnc2c1C [Compound 99, 3-(1-cyclobutylpyrazol-4-yl)-6-(7,8-dimethyl-[1,2,4]triazolo[4,3-b]pyridazin-6-yl)-7,8-dihydro-5H-1,6-naphthyridine]",–
–,–,74,0.308,"Cc1c(N2CCc3ncc(-n4cccn4)cc3C2)nn2c(C(F)(F)F)nnc2c1C [Compound 247, 6-(7,8-dimethyl-3-(trifluoromethyl)-[1,2,4]triazolo[4,3-b]pyridazin-6-yl)-3-(1H-pyrazol-1-yl)-5,6,7,8-tetrahydro-1,6-naphthyridine]",–
